Measured values from patent US8669249B2, “Poly (ADP-ribose) polymerase (PARP) inhibitors” (Takeda Pharmaceutical Company Limited, priority 2009, dated 2014).
pIC50: −log10 of the molar value.

Columns and labels:
PARP = molecular target: T1, PARP (Homo sapiens, UniProt P09874); test: PARP ELISA (ELISA-based colorimetric PARP/Apoptosis Assay kit, Trevigen); type: biochemical; details: pIC50=-log10 IC50, IC50 in mol/L; inhibition of PARP catalytic activity
T1 construct: purchased Trevigen 4684-096-K HT (kit); 4684-096-01 (PARP enzyme)
T1 sequence (P09874 whole entry): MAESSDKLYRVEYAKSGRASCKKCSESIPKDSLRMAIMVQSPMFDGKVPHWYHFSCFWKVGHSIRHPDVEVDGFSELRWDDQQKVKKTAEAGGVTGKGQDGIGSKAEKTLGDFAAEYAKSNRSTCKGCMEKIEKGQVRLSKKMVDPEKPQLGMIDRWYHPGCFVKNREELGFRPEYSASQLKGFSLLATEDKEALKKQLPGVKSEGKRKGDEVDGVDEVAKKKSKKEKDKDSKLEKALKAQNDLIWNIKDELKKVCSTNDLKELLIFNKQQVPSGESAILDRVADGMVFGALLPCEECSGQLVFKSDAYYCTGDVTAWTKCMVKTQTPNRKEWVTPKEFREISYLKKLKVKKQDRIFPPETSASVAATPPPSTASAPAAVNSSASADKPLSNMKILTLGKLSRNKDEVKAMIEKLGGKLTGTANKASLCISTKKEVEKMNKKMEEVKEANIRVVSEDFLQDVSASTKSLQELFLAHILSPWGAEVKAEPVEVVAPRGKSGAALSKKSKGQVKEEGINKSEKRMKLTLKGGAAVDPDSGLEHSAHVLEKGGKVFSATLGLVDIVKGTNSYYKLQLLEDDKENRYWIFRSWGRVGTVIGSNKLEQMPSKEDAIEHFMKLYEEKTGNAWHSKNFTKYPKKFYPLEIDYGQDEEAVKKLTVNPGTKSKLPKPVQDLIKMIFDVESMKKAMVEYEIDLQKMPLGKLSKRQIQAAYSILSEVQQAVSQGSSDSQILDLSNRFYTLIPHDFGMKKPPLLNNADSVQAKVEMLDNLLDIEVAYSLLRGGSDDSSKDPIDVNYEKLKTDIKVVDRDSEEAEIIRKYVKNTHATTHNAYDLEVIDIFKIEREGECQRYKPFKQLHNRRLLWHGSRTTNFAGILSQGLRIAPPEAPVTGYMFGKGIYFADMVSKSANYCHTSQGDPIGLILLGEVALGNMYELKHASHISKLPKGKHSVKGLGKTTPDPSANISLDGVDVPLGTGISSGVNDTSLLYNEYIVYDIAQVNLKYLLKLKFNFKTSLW
Method in brief: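 Quenched after 10 min catalysis by aspiration and four PBS/0.1% Triton X-100 washes. Poly(ADP-ribose) detected with mouse anti-PAR monoclonal antibody, goat anti-mouse IgG-HRP and HRP substrate; colorimetric signal proportional to PARP catalytic activity.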

[1] = molecular target: T2, catalytic domain of Human PARP (Homo sapiens, UniProt P09874); test: Biacore surface plasmon resonance affinity assay; type: binding; details: pKD=-log10 KD, KD in mol/L; Biacore T100, 25° C.; read-out: pKD (converted)
T2 construct: The catalytic domain of Human PARP was cloned and prepared; made in house
T2 sequence (P09874 788-1014 limits assumed): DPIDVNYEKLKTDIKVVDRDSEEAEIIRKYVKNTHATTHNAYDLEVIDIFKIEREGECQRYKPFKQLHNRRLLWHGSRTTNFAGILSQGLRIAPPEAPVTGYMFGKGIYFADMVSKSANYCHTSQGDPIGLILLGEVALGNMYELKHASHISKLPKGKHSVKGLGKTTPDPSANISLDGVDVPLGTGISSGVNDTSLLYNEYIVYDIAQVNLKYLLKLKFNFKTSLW
Method in brief: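 Binding at 25° C on Biacore T100: 1 min compound association then 5 min dissociation (50 μL/min) over immobilized PARP catalytic domain, buffer HBS-P plus 1% DMSO, 0.5 mM TCEP, 5 mM MgCl2, 2-fold dilution series. KD derived as koff/kon from fitted association and dissociation phases.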

Jurkat cell line = test: PARP cellular chemopotentiation assay (MTS, with/without TMZ); type: cell-based; details: Chemopotentiation factor: ratio of EC50 values of Jurkat cells co-treated without and with 100 μM TMZ; 96 hours
Method in brief: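 Jurkat cells, 10,000/well, pre-cultured 24 h, then treated 96 h with serial compound dilutions (0.5% DMSO) with or without 100 μM TMZ. Viability by MTS conversion (OD490), normalized to DMSO controls; EC50 from curve fits, PF50 = EC50 without TMZ / EC50 with TMZ.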

Row | SMILES | pIC50 (PARP) | Kd [1] [nM] | PF50 (Jurkat cell line)
1 | CC1Oc2ccc(CN3CCN(c4ccc(Cl)cn4)CC3)cc2NC1=O (stereo not shown) [Compound 61, 6-((4-(5-Chloropyridin-2-yl)piperazin-1-yl)methyl)-2-methyl-2H-benzo[b][1,4]oxazin-3(4H)-one] | 7.00 to 7.40 | ≤ 10 | ≦0.9
2 | COc1cc(CN2CCN(c3ccccc3)CC2)cc2c1OC(C)C(=O)N2 (stereo not shown) [Compound 156, 8-Methoxy-2-methyl-6-((4-phenylpiperazin-1-yl)methyl)-2H-benzo[b][1,4]oxazin-3(4H)-one] | ≤ 6.90 | ≤ 10 | 1.0-1.9
3 | CNC(=O)c1ccc(N2CCN(Cc3cc4c(c(OC)c3)OC(C)C(=O)N4)CC2)cc1 (stereo not shown) [Compound 161, 4-(4-((8-Methoxy-2-methyl-3-oxo-3,4-dihydro-2H-benzo[b][1,4]oxazin-6-yl)methyl)piperazin-1-yl)-N-methylbenzamide] | ≥ 7.50 | < 31.6 | ≧10.0
4 | CCNC(=O)c1ccc(N2CCN(Cc3cc4c(c(OC)c3)OC(C)C(=O)N4)CC2)cc1 (stereo not shown) [Compound 162, N-Ethyl-4-(4-((8-methoxy-2-methyl-3-oxo-3,4-dihydro-2H-benzo[b][1,4]oxazin-6-yl)methyl)piperazin-1-yl)benzamide] | ≥ 7.50 | < 31.6 | 2.0-9.9
5 | COc1cc(CN2CCN(c3ccc(C(=O)NC4CC4)cc3)CC2)cc2c1OC(C)C(=O)N2 (stereo not shown) [Compound 163, N-Cyclopropyl-4-(4-((8-methoxy-2-methyl-3-oxo-3,4-dihydro-2H-benzo[b][1,4]oxazin-6-yl)methyl)piperazin-1-yl)benzamide] | ≥ 7.50 | < 31.6 | ≧10.0
6 | COc1cc(CN2CCN(c3ccc(C(=O)NC(C)C)cc3)CC2)cc2c1OC(C)C(=O)N2 (stereo not shown) [Compound 164, N-Isopropyl-4-(4-((8-methoxy-2-methyl-3-oxo-3,4-dihydro-2H-benzo[b][1,4]oxazin-6-yl)methyl)piperazin-1-yl)benzamide] | ≥ 7.50 | < 31.6 | ≧10.0
7 | CCC1Oc2ccc(CN3CCN(c4ccccc4O)CC3)cc2NC1=O (stereo not shown) [Compound 197, 2-Ethyl-6-((4-(2-hydroxyphenyl)piperazin-1-yl)methyl)-2H-benzo[b][1,4]oxazin-3(4H)-one] | ≤ 6.90 | ≤ 10 | 1.0-1.9
8 | COC(=O)c1ccc(C2CCN(Cc3ccc4c(c3)NC(=O)C(C)O4)CC2)cc1 (stereo not shown) [Compound 214, Methyl 4-(1-((2-methyl-3-oxo-3,4-dihydro-2H-benzo[b][1,4]oxazin-6-yl)methyl)piperidin-4-yl)benzoate] | 7.00 to 7.40 | ≤ 10 | ≦0.9
9 | CCOC(=O)c1ccc(N2CCN(Cc3ccc4c(c3)NC(=O)C(C)O4)CC2)cc1 (stereo not shown) [Compound 217, Ethyl 4-(4-((2-methyl-3-oxo-3,4-dihydro-2H-benzo[b][1,4]oxazin-6-yl)methyl)piperazin-1-yl)benzoate] | ≤ 6.90 | ≤ 10 | ≦0.9
10 | CC1Oc2ccc(CN3CCN(c4ccc(C#N)cc4)CC3)cc2NC1=O (stereo not shown) [Compound 219, 4-(4-((2-methyl-3-oxo-3,4-dihydro-2H-benzo[b][1,4]oxazin-6-yl)methyl)piperazin-1-yl)benzonitrile] | ≥ 7.50 | ≤ 10 | ≦0.9
11 | CCNC(=O)c1ccc(N2CCN(Cc3cc(C)c4c(c3)NC(=O)C(C)O4)CC2)c(Cl)c1 (stereo not shown) [Compound 382, 3-Chloro-4-(4-((2,8-dimethyl-3-oxo-3,4-dihydro-2H-benzo[b][1,4]oxazin-6-yl)methyl)piperazin-1-yl)-N-ethylbenzamide] | 7.10 | – | 3.4
12 | CNC(=O)c1ccc(N2CCN(Cc3cc(C)c4c(c3)NC(=O)C(C)O4)CC2)c(Cl)c1 (stereo not shown) [Compound 383, 3-Chloro-4-(4-((2,8-dimethyl-3-oxo-3,4-dihydro-2H-benzo[b][1,4]oxazin-6-yl)methyl)piperazin-1-yl)-N-methylbenzamide] | 7.30 | – | 3.2
13 | CNC(=O)c1ccc(N2CCN(Cc3cc(C)c4c(c3)NC(=O)C(C)O4)CC2)c(C)c1 (stereo not shown) [Compound 384, 4-(4-((2,8-Dimethyl-3-oxo-3,4-dihydro-2H-benzo[b][1,4]oxazin-6-yl)methyl)piperazin-1-yl)-N,3-dimethylbenzamide] | 7.40 | – | 8.4
14 | CCNC(=O)c1ccc(N2CCN(Cc3cc(C)c4c(c3)NC(=O)C(C)O4)CC2)c(C)c1 (stereo not shown) [Compound 385, 4-(4-((2,8-Dimethyl-3-oxo-3,4-dihydro-2H-benzo[b][1,4]oxazin-6-yl)methyl)piperazin-1-yl)-N-ethyl-3-methylbenzamide] | 7.30 | – | 5.9
15 | Cc1cc(C(=O)NC2CC2)ccc1N1CCN(Cc2cc(C)c3c(c2)NC(=O)C(C)O3)CC1 (stereo not shown) [Compound 386, N-Cyclopropyl-4-(4-((2,8-dimethyl-3-oxo-3,4-dihydro-2H-benzo[b][1,4]oxazin-6-yl)methyl)piperazin-1-yl)-3-methylbenzamide] | 7.30 | – | >5.0
16 | Cc1cc(CN2CCN(c3ccc(C(=O)NC4CC4)cc3F)CC2)cc2c1OC(C)C(=O)N2 (stereo not shown) [Compound 387, N-Cyclopropyl-4-(4-((2,8-dimethyl-3-oxo-3,4-dihydro-2H-benzo[b][1,4]oxazin-6-yl)methyl)piperazin-1-yl)-3-fluorobenzamide] | 7.30 | – | >5.0
17 | Cc1cc(CN2CCN(c3ccc(C(=O)NC4CC4)cc3Cl)CC2)cc2c1OC(C)C(=O)N2 (stereo not shown) [Compound 388, 3-Chloro-N-cyclopropyl-4-(4-((2,8-dimethyl-3-oxo-3,4-dihydro-2H-benzo[b][1,4]oxazin-6-yl)methyl)piperazin-1-yl)benzamide] | 7.10 | – | 6558
18 | CC1Oc2ccc(CC3CCN(c4ccccc4)CC3)cc2NC1=O (stereo not shown) [Compound 389, 2-Methyl-6-((1-phenylpiperidin-4-yl)methyl)-2H-benzo[b][1,4]oxazin-3(4H)-one] | < 6.70 | – | 1.1
19 | CNC(=O)c1ccc(N2CCC(Cc3ccc4c(c3)NC(=O)C(C)O4)CC2)cc1 (stereo not shown) [Compound 390, N-Methyl-4-(4-((2-methyl-3-oxo-3,4-dihydro-2H-benzo[b][1,4]oxazin-6-yl)methyl)piperidin-1-yl)benzamide] | < 6.70 | – | 1.0
20 | CCOc1cc(CN2CCN(c3ccc(C(=O)NC)cc3)CC2)cc2c1OC(C)C(=O)N2 (stereo not shown) [Compound 398, 4-(4-((8-Ethoxy-2-methyl-3-oxo-3,4-dihydro-2H-benzo[b][1,4]oxazin-6-yl)methyl)piperazin-1-yl)-N-methylbenzamide] | 7.10 | – | >2.0
21 | CCNC(=O)c1ccc(N2CCN(Cc3cc4c(c(OCC)c3)OC(C)C(=O)N4)CC2)c(Cl)c1 (stereo not shown) [Compound 399, 3-Chloro-4-(4-((8-ethoxy-2-methyl-3-oxo-3,4-dihydro-2H-benzo[b][1,4]oxazin-6-yl)methyl)piperazin-1-yl)-N-ethylbenzamide] | 7.20 | – | >4.0
22 | CCOc1cc(CN2CCN(c3ccc(C(=O)NC)cc3C)CC2)cc2c1OC(C)C(=O)N2 (stereo not shown) [Compound 400, 4-(4-((8-Ethoxy-2-methyl-3-oxo-3,4-dihydro-2H-benzo[b][1,4]oxazin-6-yl)methyl)piperazin-1-yl)-N,3-dimethylbenzamide] | 7.50 | – | 1211
23 | CCNC(=O)c1ccc(N2CCN(Cc3cc4c(c(OCC)c3)OC(C)C(=O)N4)CC2)c(C)c1 (stereo not shown) [Compound 401, 4-(4-((8-Ethoxy-2-methyl-3-oxo-3,4-dihydro-2H-benzo[b][1,4]oxazin-6-yl)methyl)piperazin-1-yl)-N-ethyl-3-methylbenzamide] | 7.30 | – | >5000
24 | CCOc1cc(CN2CCN(c3ccc(C(=O)NC4CC4)cc3C)CC2)cc2c1OC(C)C(=O)N2 (stereo not shown) [Compound 402, N-Cyclopropyl-4-(4-((8-ethoxy-2-methyl-3-oxo-3,4-dihydro-2H-benzo[b][1,4]oxazin-6-yl)methyl)piperazin-1-yl)-3-methylbenzamide] | 7.40 | – | >10000
25 | CNC(=O)c1ccc(N2CCN(Cc3cc4c(c(OC(F)F)c3)OC(C)C(=O)N4)CC2)cc1 (stereo not shown) [Compound 403, 4-(4-((8-(Difluoromethoxy)-2-methyl-3-oxo-3,4-dihydro-2H-benzo[b][1,4]oxazin-6-yl)methyl)piperazin-1-yl)-N-methylbenzamide] | 7.20 | – | >2.0
26 | CCNC(=O)c1ccc(N2CCN(Cc3cc4c(c(OC(F)F)c3)OC(C)C(=O)N4)CC2)cc1 (stereo not shown) [Compound 404, 4-(4-((8-(Difluoromethoxy)-2-methyl-3-oxo-3,4-dihydro-2H-benzo[b][1,4]oxazin-6-yl)methyl)piperazin-1-yl)-N-ethylbenzamide] | 7.50 | – | >2.0
27 | CNC(=O)c1ccc(N2CCN(Cc3cc4c(c(OC(F)F)c3)OC(C)C(=O)N4)CC2)c(C)c1 (stereo not shown) [Compound 406, 4-(4-((8-(Difluoromethoxy)-2-methyl-3-oxo-3,4-dihydro-2H-benzo[b][1,4]oxazin-6-yl)methyl)piperazin-1-yl)-N,3-dimethylbenzamide] | 7.20 | – | 13
